Measured values: paper PMC6467259 (Journal of the American Chemical Society, 2018)

Target: PagF (Planktothrix agardhii, UniProt F5B6Z0, F222A)
Experiment: crystal structure of the complex, […] Å
Settings: MgCl2; isoprene donor-binding site

## CC(C)=CCC/C(C)=C/COP(=O)(O)OP(=O)(O)O [GPP]
  crystal structure of the complex, 1.85 Å: crystals of Phe222→Ala PagF in complex with GPP and MgCl2
